Results on six molecules are retold here after patent US20230234993A1, “COMPOSITION FOR PREVENTING OR TREATING NEUROLOGICAL DISEASES RELATED TO COPPER METABOLISM, COMPRISING MULTI-COPPER OXIDASE PEPTIDE” (NATIONAL MARINE BIODIVERSITY INSTITUTE OF KOREA, priority 2020, published 2023).

Where no end group is shown, it is not given here.

Holding throughout (type): in vivo
Series [1] has as its system zebrafish embryos under copper overexposure conditions. Kind of series: Cardiotoxicity (heart rate) in copper-overexposed nervous system model. Here is the method: The development process of fertilized eggs obtained by mating male and female wild-type zebrafish was safely maintained in an incubator (28.5° C.). At 24 hours after fertilization, normally grown embryos were dispensed into a 24-well plate by 20 subjects and maintained under copper overexposure conditions. On 4.5 days after treatment (5.5 days after fertilization), 7 subjects per group were randomly selected, 3% methylcellulose was put in a hole slide glass, and the heart of each subject was located on the hole slide glass to be observed with the naked eye through a stereoscopic microscope lens and observed under a microscope. The heart rate was measured together with the movement of the atria and the ventricles for 20 seconds for each subject in each group to be converted to a heart rate per minute and the average heart rate for each group was compared through a PRISM (Bonfferroni's Multiple Comparison Test, One-way ANOVA) program. In addition, the heart rate inhibition rate was calculated as follows using an average heart rate of the control group. Heart rate inhibition rate=[(average heart rate by group−average heart rate in control group)×100]/average heart rate in control group […] The results of measuring the heart rate in the copper overexposed model animal were illustrated in FIG. 11A, and the heart rate inhibition rate calculated based on the heart rate measurement results was illustrated in FIG. 11B.

Series [2] relates to zebrafish embryos exposed to copper. Briefly: Hatching rate under copper overexposure conditions. On the procedure:
Through hatching rate examination, the activities of CP002 and CP002S were analyzed in zebrafish embryos exposed to copper. Specifically, the development process of fertilized eggs obtained by mating male and female wild-type zebrafish was safely maintained in an incubator. At 24 hours after fertilization, normally grown embryos were dispensed into a 24-well plate by 13 subjects and maintained under copper overexposure conditions. The dispensed subjects were treated with CP002 (5, 10 μM), CP002S (5, 10 μM), DPA (5, 10 μM), or TETA (5, 10 μM). From 48 hours to 52, 56, 60, 72, and 80 hours after fertilization (24 hours after treatment) when hatching started, the number of hatched subjects in each group was examined. A negative control group in the experiment was a 0.1% DMSO treated group (normal group) and a copper overexposed group (4 μM CuSO4), and a positive control group was a CP002 treated group; a DPA (penicillamine/D-Penicillamine) treated group; and a TETA (trientine/Trientine) treated group. The DPA and TETA were drugs that have been used as therapeutic agents for Wilson's disease and copper overexposure in the related art. The results of examining the hatching rate were illustrated in FIG. 9.

Series [3] has as its system myelinated cells in the nervous system of zebrafish embryos under copper overexposure. Briefly: Myelination defect of cranial ganglia in copper overexposure nervous system model (fluorescence microscopy). The conditions noted are these: 6 days of drug treatment; for subjects expressing the fluorescent protein (cranial ganglia): with copper, concentration not given. On the procedure: The development process of fertilized eggs obtained by mating male and female wild-type zebrafish was safely maintained in an incubator (28.5° C.). At 24 hours after fertilization, normally grown embryos were dispensed into a 24-well plate by 10 subjects and maintained under copper overexposure conditions. To examine the developmental defects of myelinated cells in the nervous system due to copper overexposure and a therapeutic effect of a multi-copper oxidase peptide, CP002S (10 μM) was treated. After 6 days of drug treatment, the subjects were anesthetized with tricaine and placed in 3% methylcellulose. The myelination defect of cranial ganglia (Cg) was observed through fluorescence microscopy, and fluorescent proteins were divided into a normal and a defect according to an expression level. A negative control group in the experiment was a 0.1% DMSO treated group (normal group) and a copper overexposed group, and a positive control group was a DPA (penicillamine/D-Penicillamine) treated group; and a TETA (trientine/Trientine) treated group. The results observed with a fluorescence microscope were illustrated in FIG. 10A, and the results of analyzing the therapeutic effect based on the fluorescence microscope observation results were illustrated in FIG. 10B.

The subject of series [4] is wild-type zebrafish fertilized eggs. Kind of series: Developmental toxicity analysis of multi-copper oxidase-derived peptides (number of surviving subjects, viability). Here is the method: The developmental toxicity of CP001 (SEQ ID NO: 3) and CP002 (SEQ ID NO: 4), which were multi-copper oxidase-derived peptides, was analyzed. Specifically, fertilized eggs were obtained by mating wild-type zebrafish. After the obtained fertilized eggs were maintained in an incubator for 24 hours, 7 subjects were dispensed into each well of a 24-well plate. The dispensed subjects were treated with CP001 and CP002 at various concentrations (10, 50, and 100 μM). After treatment with the CP001 and CP002, the number of surviving subjects at 2, 6, 22, and 36 hours was confirmed using a microscope, and the viability was calculated based on the results. The control group of the experiment was treated with 0.1% DMSO. The result of confirming the number of surviving subjects was illustrated in FIG. 5A and the calculation result of the viability was illustrated in FIG. 5B.
The experiment was performed in the same method as described above, and the treatment concentrations of CP001 and CP002 were as follows. • CP001: 1 μM, 4 μM • CP002: 5 μM, 10 μM

The test system of series [5] is wild-type zebrafish embryos. Briefly: Abnormal blood deposition in tissue by hematological staining after ceruloplasmin mRNA injection. The settings on record: 180 pg or 350 pg mRNA injected into embryos at 1 to 4 cell stages; 48 hours after injection; compared to normal group. Here is the method:
Specifically, the ceruloplasmin gene (SEQ ID NO: 1) derived from Octopus minor obtained in Example 1 was treated with restriction enzymes Cla 1 and Xho 1, and inserted into a pCS2+ expression vector. A restriction enzyme Sac II was treated to the pCS2+ expression vector into which the ceruloplasmin gene was inserted, to prepare linear DNA. An mRNA using the linear DNA as a template was synthesized by an in vitro transcription (Sp6, Invitrogen) method.
After obtaining fertilized eggs by mating wild-type zebrafish, embryos at 1 to 4 cell stages were arranged on an injection plate. After loading the synthesized ceruloplasmin mRNA in a microglass tube with a microloder tip, a predetermined concentration (180 pg or 350 pg) thereof was injected into the embryo using a microinjector, a picopump, and a microscope. Subjects injected with the ceruloplasmin mRNA were cultured in an incubator, and after 48 hours of injection, dark-treated with a hematological staining reagent (o-dianisidine (0.6 mg/ml), 0.01 M sodium acetate (pH 4.5), 0.65% H2O2, 40% ethanol) for 30 minutes, and then washed. After washing, a fixing solution (4% paraformaldehyde) was treated to the subject injected with the ceruloplasmin mRNA, and reacted for at least 1 hour. The subjects injected with the immobilized ceruloplasmin mRNA were placed in 80% glycerol/20% PBS, and photographed under a stereoscopic microscope. […]

Setting [6] is: copper overexposure, 5.5 days after fertilization, concentration not given.
[7] abbreviates: 5 μM, 48 hours after fertilization.
Setting [8] is: 5 μM, 52 hours after fertilization.
Where [9] appears, read: 10 μM, 48 hours after fertilization.
[10] abbreviates: 10 μM, 52 hours after fertilization.
Setting [11] is: 10 μM, 72 hours after fertilization.
Setting [12] is: 10 μM, 80 hours after fertilization.

Turning to `NCCNCCNCCN` [TETA, Trientine], the heart rate in series [1] (setting [6]) was 148 beats per minute. Also, in series [1] (setting [6]), the “heart rate increase compared to the control group (heart rate inhibition rate)” value came to 3.5%. Besides, the hatching rate in series [2] (setting [7]) is 12.5%; in series [2] (setting [8]) it was 75%; in series [2] (5 μM, 56 hours after fertilization), 100%; in series [2] (setting [9]), 30.7%; in series [2] (setting [10]), 84.6%; in series [2] (setting [11]), 92.3%. Besides, the hatching rate in series [2] (setting [12]) came to 100%. Also, in series [3], the “subjects expressing the fluorescent protein (cranial ganglia)” value came out at 80%.

For the molecule HCHVDDHIIGGM [CP002S], the heart rate in series [1] (10 μM, copper overexposure, 5.5 days after fertilization) turned out to be 135 beats per minute. Besides, the hatching rate in series [2] (setting [7]) is 10%; in series [2] (setting [8]), 20%; in series [2] (5 μM, 72 hours after fertilization), 100%; in series [2] (setting [9]) it was 80%; in series [2] (setting [10]), 100%. For the same molecule, in series [3] (10 μM with copper), the “subjects with fluorescent protein expression in the cranial ganglia” value was “all subjects”.

As to `CC(C)(S)[C@@H](N)C(=O)O` [DPA, D-Penicillamine], the hatching rate in series [2] (5 μM, 80 hours after fertilization) is reported as 45.4%; in series [2] (setting [11]) it was 36.3%; in series [2] (setting [12]), 81.8%. Also, in series [3], the “subjects expressing the fluorescent protein (cranial ganglia)” value was 100%.

GSWLVKCHVHDHYVGGMETLL [CP001]: the developmental toxicity entry in series [4] (5 μM) is listed as “developmental toxicity was not confirmed”; in series [4] (10 to 100 μM, surviving subjects at 2, 6, 22, 36 hours), “developmental toxicity was confirmed”. Moreover, the “developmental toxicity (number of surviving subjects and viability)” value in series [4] (1 or 4 μM) was “there was no developmental toxicity”.

In turn, GKWLLHCHVDDHIIGGMSAIY [CP002] came in with a heart rate in series [1] (setting [6]) of 132 beats per minute. The “heart rate decrease compared to the normal group (heart rate inhibition rate)” value in series [1] (zebrafish, in vivo) is listed as 7.7%. The developmental toxicity result was “developmental toxicity was not shown” in series [4] (10 μM, surviving subjects at 2, 6, 22, 36 hours) and “developmental toxicity was confirmed” in series [4] (50 to 100 μM, surviving subjects at 2, 6, 22, 36 hours). In addition, in series [4] (5 or 10 μM), the “developmental toxicity (number of surviving subjects and viability)” value was “there was no developmental toxicity”.

Turning to “ceruloplasmin mRNA: mRNA synthesized by in vitro transcription from the Octopus minor ceruloplasmin gene (SEQ ID NO: 1)”, in series [5], the “blood deposition in tissue (o-dianisidine hematological staining)” value was “abnormal blood deposition in tissue was observed”.
